In the supplement of paper PMC11208160:
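Further: IS621 recombinase and bridge RNA in Escherichia coli cells.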

Assay: recombinant barcode read abundance after kanamycin selection (control-corrected) (log10(CPM+1)); higher = more efficient recombination; sequences stand for … in AGTGCAGAGAAAATCGGCCAGTTTTCTCTGCCTGCAGTCCGCATGCCGT…AGATTTATGCAGCGGACTGCCTTTCTCCCAAAGTGATAAACCGGACAGTATCATGGACCGGTTTTCCCGGTAATCCGTATTTGCAAGGTTGGTTTCACT; site = the 11-nt target
Summary of the method: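 IS621 bridge RNA target-binding loops were paired with targets in a pooled library tested in E. coli. After co-electroporation with a donor plasmid, cells were plated in two replicates on chloramphenicol/ampicillin LB agar (control) and on chloramphenicol/ampicillin/kanamycin carrying 0.1 mM IPTG. Barcodes at recombinant junctions were counted as counts per million, averaged and control-corrected to give recombination efficiency. Values are log10(CPM+1).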
In the case of “CGGATTGCTTGGGTTCTAACCTGTTGCCT (site CGGATCGCTAG)”, the “recombinant barcode read abundance (log10)” value is reported as 0.0723.
In the case of “CGGATTGCTTGGGTTCTAACCTGTTGCCT (site CGGATGGCTAG)”, the “recombinant barcode read abundance (log10)” value is reported as 0.122.
In the case of “CGGATTGCTTGGGTTCTAACCTGTTGCCT (site CGGATTGCTAG)”, the “recombinant barcode read abundance (log10)” value is reported as 0.533.
With “CGGCACACTTGGGTTCTAACCTGTTGCGG (site CGGAACACTCC)” the “recombinant barcode read abundance (log10)” value was 0.06.
In the case of “CGGCACACTTGGGTTCTAACCTGTTGCGG (site CGGCACACTCC)”, the “recombinant barcode read abundance (log10)” value is reported as 1.86.
For “CGGCACACTTGGGTTCTAACCTGTTGCGG (site CGGGACACTCC)”, the “recombinant barcode read abundance (log10)” value was 0.143.
For “CGGCACACTTGGGTTCTAACCTGTTGCGG (site CGGTACACTCC)”, the “recombinant barcode read abundance (log10)” value was 0.582.
For “CGGCCACCTTGGGTTCTAACCTGTTGCTT (site AATGGGGCTCT)”, the “recombinant barcode read abundance (log10)” value was 0.0969.
With “CGGCCACCTTGGGTTCTAACCTGTTGCTT (site CGGCCACCTAA)” the “recombinant barcode read abundance (log10)” value was 1.02.
With “CGGCCCACTTGGGTTCTAACCTGTTGCGG (site CGGCCCACTCC)” the “recombinant barcode read abundance (log10)” value was 2.35.
For “CGGCCCACTTGGGTTCTAACCTGTTGCGG (site CGGGCCACTAC)”, the “recombinant barcode read abundance (log10)” value was 0.033.
For “CGGCCGCCTTGGGTTCTAACCTGTTGCTT (site CGGCCGCCTAA)”, the “recombinant barcode read abundance (log10)” value was 0.69.
In the case of “CGGCCGCCTTGGGTTCTAACCTGTTGCTT (site GGGTCGCCTAA)”, the “recombinant barcode read abundance (log10)” value is reported as 0.0563.
In the case of “CGGCTCCCTTGGGTTCTAACCTGTTGCTT (site CGGCTCCCTAA)”, the “recombinant barcode read abundance (log10)” value is reported as 1.24.
In the case of “CGGCTCCCTTGGGTTCTAACCTGTTGCTT (site GACACAACTTG)”, the “recombinant barcode read abundance (log10)” value is reported as 0.147.
In the case of “CGGGCCACTTGGGTTCTAACCTGTTGCCT (site CAGGCCACTAG)”, the “recombinant barcode read abundance (log10)” value is reported as 0.198.
In the case of “CGGGCCACTTGGGTTCTAACCTGTTGCCT (site CCGGCCACTAG)”, the “recombinant barcode read abundance (log10)” value is reported as 0.0207.
With “CGGGCCACTTGGGTTCTAACCTGTTGCCT (site CGGGCCACTAG)” the “recombinant barcode read abundance (log10)” value was 0.442.
With “CGGGCCACTTGGGTTCTAACCTGTTGCCT (site CTGGCCACTAG)” the “recombinant barcode read abundance (log10)” value was 0.177.
For “CGGGCCTCTTGGGTTCTAACCTGTTGCTG (site CGGGCCTCTAA)”, the “recombinant barcode read abundance (log10)” value was 0.504.
With “CGGGCCTCTTGGGTTCTAACCTGTTGCTG (site CGGGCCTCTCA)” the “recombinant barcode read abundance (log10)” value was 2.82.
With “CGGGCCTCTTGGGTTCTAACCTGTTGCTG (site CGGGCCTCTGA)” the “recombinant barcode read abundance (log10)” value was 0.217.
In the case of “CGGGCCTCTTGGGTTCTAACCTGTTGCTG (site CGGGCCTCTTA)”, the “recombinant barcode read abundance (log10)” value is reported as 0.872.
For “CGGGCGTCTTGGGTTCTAACCTGTTGCTA (site ATTCGAGCTAT)”, the “recombinant barcode read abundance (log10)” value was 0.116.
With “CGGGCGTCTTGGGTTCTAACCTGTTGCTA (site CGGGCGTCTTA)” the “recombinant barcode read abundance (log10)” value was 1.17.
In the case of “CGGGCTACTTGGGTTCTAACCTGTTGCGG (site CGGGCTACTCC)”, the “recombinant barcode read abundance (log10)” value is reported as 3.05.
In the case of “CGGGCTACTTGGGTTCTAACCTGTTGCGG (site GGGACTACTCC)”, the “recombinant barcode read abundance (log10)” value is reported as 0.0963.
In the case of “CGGGCTACTTGGGTTCTAACCTGTTGCTA (site CGGGCTACTTA)”, the “recombinant barcode read abundance (log10)” value is reported as 1.79.
In the case of “CGGGCTACTTGGGTTCTAACCTGTTGCTA (site GGGGCAACTTA)”, the “recombinant barcode read abundance (log10)” value is reported as 0.209.
For “CGGGGCCCTTGGGTTCTAACCTGTTGCTT (site CGGGGCCCTAA)”, the “recombinant barcode read abundance (log10)” value was 2.6.
For “CGGGGCCCTTGGGTTCTAACCTGTTGCTT (site GACTAGTCTCT)”, the “recombinant barcode read abundance (log10)” value was 0.167.
For “CGGGGTCCTTGGGTTCTAACCTGTTGCTA (site CGGAGTCCTTA)”, the “recombinant barcode read abundance (log10)” value was 1.68.
With “CGGGGTCCTTGGGTTCTAACCTGTTGCTA (site CGGCGTCCTTA)” the “recombinant barcode read abundance (log10)” value was 0.41.
In the case of “CGGGGTCCTTGGGTTCTAACCTGTTGCTA (site CGGGGTCCTTA)”, the “recombinant barcode read abundance (log10)” value is reported as 2.5.
In the case of “CGGGGTCCTTGGGTTCTAACCTGTTGCTA (site CGGTGTCCTTA)”, the “recombinant barcode read abundance (log10)” value is reported as 0.35.
For “CGGTCATCTTGGGTTCTAACCTGTTGCCT (site CGATCATCTAG)”, the “recombinant barcode read abundance (log10)” value was 0.331.
